Source: the supplement of paper PMC13380429

Key:
Conditions in all cases: 72 h
Vero E6 [1] = assay: cell viability relative to DMSO; higher = less toxic
HepG2 [2] = assay: as above
U2OS [3] = assay: as above
Calu-3 [4] = assay: as above
Caco-2 [5] = assay: as above
Vero E6 [6] = assay: drug sensitivity score (DSS) for viability; higher = more toxic; extreme values may be limits of the assay
HepG2 [7] = assay: as above
U2OS [8] = assay: as above
Calu-3 [9] = assay: as above
Caco-2 [10] = assay: as above
Vero E6 [11] = assay: relative viability EC50 (midpoint between 100% and the lowest measured viability); higher = less toxic
HepG2 [12] = assay: as above
U2OS [13] = assay: as above
Calu-3 [14] = assay: as above
Caco-2 [15] = assay: as above

Compound	cell viability (Vero E6 [1]; 1 nM) [%]	cell viability (Vero E6 [1]; 10 nM) [%]	cell viability (Vero E6 [1]; 100 nM) [%]	cell viability (Vero E6 [1]; 1000 nM) [%]	cell viability (Vero E6 [1]; 10000 nM) [%]	cell viability (HepG2 [2]; 1 nM) [%]	cell viability (HepG2 [2]; 10 nM) [%]	cell viability (HepG2 [2]; 100 nM) [%]	cell viability (HepG2 [2]; 1000 nM) [%]	cell viability (HepG2 [2]; 10000 nM) [%]	cell viability (U2OS [3]; 1 nM) [%]	cell viability (U2OS [3]; 10 nM) [%]	cell viability (U2OS [3]; 100 nM) [%]	cell viability (U2OS [3]; 1000 nM) [%]	cell viability (U2OS [3]; 10000 nM) [%]	cell viability (Calu-3 [4]; 1 nM) [%]	cell viability (Calu-3 [4]; 10 nM) [%]	cell viability (Calu-3 [4]; 100 nM) [%]	cell viability (Calu-3 [4]; 1000 nM) [%]	cell viability (Calu-3 [4]; 10000 nM) [%]	cell viability (Caco-2 [5]; 1 nM) [%]	cell viability (Caco-2 [5]; 10 nM) [%]	cell viability (Caco-2 [5]; 100 nM) [%]	cell viability (Caco-2 [5]; 1000 nM) [%]	cell viability (Caco-2 [5]; 10000 nM) [%]	drug sensitivity score (Vero E6 [6])	drug sensitivity score (HepG2 [7])	drug sensitivity score (U2OS [8])	drug sensitivity score (Calu-3 [9])	drug sensitivity score (Caco-2 [10])	relative viability EC50 (Vero E6 [11]) [µM]	relative viability EC50 (HepG2 [12]) [µM]	relative viability EC50 (U2OS [13]) [µM]	relative viability EC50 (Calu-3 [14]) [µM]	relative viability EC50 (Caco-2 [15]) [µM]
NC(=O)CN1Cc2ccccc2OC1=O [caroxazone]	99.5	99.8	101	96.9	96.4	101	94.6	101	93.1	100	100	99	101	95.3	102	103	93.2	93.7	105	101	109	102	101	96	104	0	0	0	0	0	> 10	> 10	> 10	> 10	> 10
CC(=O)OCC1=C(C(=O)O)N2C(=O)[C@@H](NC(=O)Cc3cccs3)[C@H]2SC1 [cephalothin]	100	97.6	93.6	88.7	110	87.9	102	86	86.8	86.3	104	98.4	94.1	99.4	104	117	94.2	104	103	106	110	103	102	98.5	119	0	0.8	0	0	0	> 10	> 10	> 10	> 10	> 10
CC(CN(C)C)C(C)(O)Cc1ccc(Cl)cc1 (stereo not given) [clobutinol]	101	98.6	102	89.6	93.2	111	95.5	105	97.6	88.4	97.3	97.4	97.7	96.5	96.9	98.7	106	106	104	98.1	99.1	118	100	108	97.4	0.1	0.1	0	0	0	> 10	> 10	> 10	> 10	> 10
CC(C)(C)NCC(O)COc1cc(Cl)ccc1Cl (stereo not given) [cloranolol]	106	98.8	100	95.5	90	90.7	96.2	94.6	94.8	88.7	102	94.8	103	97.1	106	95	88.1	76.5	89.9	92.3	85.6	89.4	106	112	88.8	0	0	0	0	0	> 10	> 10	> 10	> 10	> 10
Nc1cc(C(Cl)=C(Cl)Cl)c(S(N)(=O)=O)cc1S(N)(=O)=O [clorsulon]	105	106	96.8	102	100	100	106	94.2	101	100	96.9	97	100	97	102	90.1	97.6	104	97.2	101	94.8	90.5	98.5	93.8	102	0	0	0	0	0	> 10	> 10	> 10	> 10	> 10
O=S(=O)(O)NC1CCCCC1 [cyclamic-acid]	108	99.8	101	99.1	106	112	99.5	97.8	98.8	105	98.1	100	96.8	101	96.3	101	99.7	90	101	97.8	107	106	85.7	98.4	93.5	0	0	0	0	0	> 10	> 10	> 10	> 10	> 10
Nc1nc(N)nc(NC2CC2)n1 [cyromazine]	92.8	98.2	93	99.1	109	96.3	105	99.8	95	104	94.9	93.4	97.8	96.7	103	105	92.6	95.7	84.6	103	99.6	99.8	108	95.3	96.1	0	0	0	0	0	> 10	> 10	> 10	> 10	> 10
Cc1ccccc1N1CCN(CCc2nnc3n2CCCC3)CC1 [dapiprazole]	92.9	93.2	97.6	98.9	92.8	99.8	104	92.9	94.3	102	99.2	105	96.2	106	102	106	102	92.9	102	101	106	99.9	86.9	98	92.5	0	0	0	0	0	> 10	> 10	> 10	> 10	> 10
CCOC(=O)[C@H](CCc1ccccc1)N[C@@H](C)C(=O)N(CC(=O)O)C1Cc2ccccc2C1 [delapril]	107	102	111	107	99.7	105	102	98.3	96.7	98	100	93.1	103	98.6	98	98.6	101	92.3	90.6	106	106	103	98.2	111	95.4	0	0	0	0	0	> 10	> 10	> 10	> 10	> 10
Nc1ncnc2c1ncn2[C@@H]1O[C@H](COP(=O)(O)OP(=O)(O)OP(=O)(O)OP(=O)(O)OC[C@H]2O[C@@H](n3cnc4c(N)ncnc43)[C@H](O)[C@@H]2O)[C@@H](O)[C@H]1O [diadenosine-tetraphosphate]	99	102	96.5	102	97	94.6	101	114	102	104	94.5	98.1	97.7	97.5	107	106	104	94.9	89.6	92.4	99.4	97.8	99.3	102	107	0	0	0	0.1	0	> 10	> 10	> 10	> 10	> 10
CC(C)[C@@]1(NC(=O)[C@@H]2C[C@@H]3c4cccc5[nH]cc(c45)C[C@H]3N(C)C2)O[C@@]2(O)[C@@H]3CCCN3C(=O)[C@H](Cc3ccccc3)N2C1=O [dihydroergocristine]	102	100	102	99	99.5	103	95.1	95.8	100	86.4	96.3	100	99.2	98.2	96.4	92.6	97.5	99	93.3	94.9	105	100	89.3	102	91.7	0	0.1	0	0	0	> 10	> 10	> 10	> 10	> 10
CC(=O)Oc1cccc(C(=O)O)c1OC(C)=O [dipyrocetyl]	101	105	103	99.4	101	96	95.9	97.8	89.5	96.9	103	96.8	101	101	101	93.8	92.9	85.2	99.8	86.8	99.9	90.2	100	97	92	0	0	0	0	0	> 10	> 10	> 10	> 10	> 10
Cc1ccccc1NC(=N)Nc1ccccc1C [ditolylguanidine]	96.4	104	95.6	100	95.6	100	96.1	97.7	94.3	97.9	98.8	104	94.6	102	94.7	103	104	95.8	103	90.4	96.5	100	103	95.6	88.3	0	0	0	0	0.2	> 10	> 10	> 10	> 10	> 10
Cc1cc(Oc2ccc3nc(COc4ccc(CC5SC(=O)NC5=O)cc4)n(C)c3c2)cc(C)c1N (stereo not given) [efatutazone]	95.4	86	87.5	87.1	85.3	105	99.5	106	104	103	98.3	104	97.5	106	97.6	106	102	104	105	99.2	102	97.6	97.1	97.3	97.4	3.6	0	0	0	0	> 10	> 10	> 10	> 10	> 10
